Assay results as given in article PMC4669708 (Cell Death & Disease, 2015).

What was measured:
Assay in all cases: c-ponatinib pulldown LC-MS/MS
Format in all cases: binding
MAP4K1 = MAP4K1 (Homo sapiens, UniProt Q92918)
Procedure, shortened: (§1)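 Read-out: interaction P-value combining Mascot scores, Phenyx scores and spectral counts (Fisher's method), plus fold reduction of median spectral counts on free-compound competition. Proteins were enriched from 10 mg cell lysate on c-ponatinib beads, then trypsin-digested for LC-MS/MS.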

GAK = target: T1, GAK (Homo sapiens, UniProt O14976)
T1 sequence (O14976 1-1311): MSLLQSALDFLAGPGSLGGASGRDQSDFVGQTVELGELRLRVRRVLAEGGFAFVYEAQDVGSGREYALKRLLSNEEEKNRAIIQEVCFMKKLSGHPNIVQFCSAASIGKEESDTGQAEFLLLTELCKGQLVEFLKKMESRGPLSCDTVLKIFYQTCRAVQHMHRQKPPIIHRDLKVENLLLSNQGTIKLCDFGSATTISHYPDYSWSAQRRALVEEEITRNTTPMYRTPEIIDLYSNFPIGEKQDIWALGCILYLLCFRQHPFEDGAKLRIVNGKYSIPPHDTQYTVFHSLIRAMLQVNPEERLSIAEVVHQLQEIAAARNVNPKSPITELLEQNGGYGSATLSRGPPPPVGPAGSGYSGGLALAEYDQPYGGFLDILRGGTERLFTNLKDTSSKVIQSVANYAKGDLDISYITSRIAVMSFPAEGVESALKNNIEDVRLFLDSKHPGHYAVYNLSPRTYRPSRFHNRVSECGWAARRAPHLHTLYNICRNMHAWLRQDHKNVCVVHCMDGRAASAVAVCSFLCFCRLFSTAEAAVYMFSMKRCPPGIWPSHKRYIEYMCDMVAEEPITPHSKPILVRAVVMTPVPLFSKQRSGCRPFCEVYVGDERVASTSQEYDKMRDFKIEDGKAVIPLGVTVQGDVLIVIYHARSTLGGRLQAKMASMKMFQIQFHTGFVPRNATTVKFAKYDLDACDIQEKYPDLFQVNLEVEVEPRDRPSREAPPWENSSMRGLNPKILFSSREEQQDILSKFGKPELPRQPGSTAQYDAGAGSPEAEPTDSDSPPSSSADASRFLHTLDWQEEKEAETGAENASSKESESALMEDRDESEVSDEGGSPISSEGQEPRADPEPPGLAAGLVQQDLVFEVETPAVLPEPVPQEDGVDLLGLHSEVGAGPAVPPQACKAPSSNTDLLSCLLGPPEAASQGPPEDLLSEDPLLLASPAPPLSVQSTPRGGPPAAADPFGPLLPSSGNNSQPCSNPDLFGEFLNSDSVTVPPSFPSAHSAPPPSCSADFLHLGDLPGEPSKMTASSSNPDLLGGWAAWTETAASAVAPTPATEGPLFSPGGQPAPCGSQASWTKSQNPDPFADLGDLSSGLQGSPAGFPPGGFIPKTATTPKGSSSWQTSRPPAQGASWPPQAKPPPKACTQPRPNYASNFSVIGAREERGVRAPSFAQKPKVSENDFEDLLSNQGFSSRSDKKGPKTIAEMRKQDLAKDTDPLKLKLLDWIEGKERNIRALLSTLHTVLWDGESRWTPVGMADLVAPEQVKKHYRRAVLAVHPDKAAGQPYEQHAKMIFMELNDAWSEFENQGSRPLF
Procedure, shortened: as §1

TNIK = TNIK (Homo sapiens, UniProt Q9UKE5)
Procedure, shortened: as §1

JAK2 = JAK2 (Homo sapiens, UniProt O60674)
Procedure, shortened: as §1

TCP1 = TCP1 (Homo sapiens, UniProt P17987)
Procedure, shortened: as §1

JAK2, sequence (O60674 whole entry): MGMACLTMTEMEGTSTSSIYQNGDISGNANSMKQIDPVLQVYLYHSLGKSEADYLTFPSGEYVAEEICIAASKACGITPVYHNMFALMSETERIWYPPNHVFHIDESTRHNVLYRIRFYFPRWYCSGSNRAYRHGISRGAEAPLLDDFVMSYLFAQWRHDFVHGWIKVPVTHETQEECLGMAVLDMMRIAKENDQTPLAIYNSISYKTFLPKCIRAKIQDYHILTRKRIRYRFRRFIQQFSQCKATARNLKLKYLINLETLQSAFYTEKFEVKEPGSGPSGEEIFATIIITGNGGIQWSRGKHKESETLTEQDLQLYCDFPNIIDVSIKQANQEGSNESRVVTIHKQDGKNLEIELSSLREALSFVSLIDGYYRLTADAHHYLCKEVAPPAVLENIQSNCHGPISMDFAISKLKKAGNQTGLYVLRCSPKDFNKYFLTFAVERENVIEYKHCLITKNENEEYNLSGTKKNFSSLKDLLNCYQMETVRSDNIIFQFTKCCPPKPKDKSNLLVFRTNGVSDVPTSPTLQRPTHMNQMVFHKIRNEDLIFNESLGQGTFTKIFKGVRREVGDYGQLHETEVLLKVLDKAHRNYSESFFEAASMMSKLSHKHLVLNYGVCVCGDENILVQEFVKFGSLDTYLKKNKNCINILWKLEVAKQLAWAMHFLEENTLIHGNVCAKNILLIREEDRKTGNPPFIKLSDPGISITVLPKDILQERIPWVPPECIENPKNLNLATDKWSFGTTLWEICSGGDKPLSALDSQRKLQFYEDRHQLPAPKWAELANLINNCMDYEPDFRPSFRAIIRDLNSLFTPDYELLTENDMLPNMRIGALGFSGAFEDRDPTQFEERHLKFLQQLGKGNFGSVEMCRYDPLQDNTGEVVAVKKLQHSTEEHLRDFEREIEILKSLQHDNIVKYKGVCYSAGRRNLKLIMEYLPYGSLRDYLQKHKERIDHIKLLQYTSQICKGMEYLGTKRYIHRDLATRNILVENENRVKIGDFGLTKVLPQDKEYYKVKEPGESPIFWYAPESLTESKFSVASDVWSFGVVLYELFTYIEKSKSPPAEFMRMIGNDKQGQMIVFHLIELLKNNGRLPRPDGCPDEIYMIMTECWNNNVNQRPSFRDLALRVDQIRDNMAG
MAP4K1, sequence (Q92918 whole entry): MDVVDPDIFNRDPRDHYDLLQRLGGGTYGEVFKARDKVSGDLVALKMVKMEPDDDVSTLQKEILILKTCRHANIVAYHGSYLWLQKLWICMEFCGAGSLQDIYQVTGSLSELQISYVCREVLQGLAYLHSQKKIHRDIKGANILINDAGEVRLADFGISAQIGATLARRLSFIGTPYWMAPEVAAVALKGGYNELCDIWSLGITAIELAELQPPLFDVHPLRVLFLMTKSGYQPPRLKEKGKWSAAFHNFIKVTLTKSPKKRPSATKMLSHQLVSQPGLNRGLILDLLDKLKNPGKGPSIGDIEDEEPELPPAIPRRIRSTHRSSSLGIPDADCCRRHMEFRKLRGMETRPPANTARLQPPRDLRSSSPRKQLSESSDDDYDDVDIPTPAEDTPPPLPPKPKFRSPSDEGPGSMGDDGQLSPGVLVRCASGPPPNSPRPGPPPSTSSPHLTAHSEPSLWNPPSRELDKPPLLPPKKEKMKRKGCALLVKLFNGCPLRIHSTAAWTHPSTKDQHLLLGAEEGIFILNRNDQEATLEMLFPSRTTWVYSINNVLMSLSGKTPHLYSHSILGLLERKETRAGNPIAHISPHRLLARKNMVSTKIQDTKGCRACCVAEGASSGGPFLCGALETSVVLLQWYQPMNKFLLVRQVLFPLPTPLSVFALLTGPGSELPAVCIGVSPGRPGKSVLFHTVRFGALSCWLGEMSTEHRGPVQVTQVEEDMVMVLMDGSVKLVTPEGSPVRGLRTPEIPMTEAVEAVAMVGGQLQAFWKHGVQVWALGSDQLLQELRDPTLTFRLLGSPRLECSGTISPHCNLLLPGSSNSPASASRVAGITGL
TNIK, sequence (Q9UKE5 whole entry): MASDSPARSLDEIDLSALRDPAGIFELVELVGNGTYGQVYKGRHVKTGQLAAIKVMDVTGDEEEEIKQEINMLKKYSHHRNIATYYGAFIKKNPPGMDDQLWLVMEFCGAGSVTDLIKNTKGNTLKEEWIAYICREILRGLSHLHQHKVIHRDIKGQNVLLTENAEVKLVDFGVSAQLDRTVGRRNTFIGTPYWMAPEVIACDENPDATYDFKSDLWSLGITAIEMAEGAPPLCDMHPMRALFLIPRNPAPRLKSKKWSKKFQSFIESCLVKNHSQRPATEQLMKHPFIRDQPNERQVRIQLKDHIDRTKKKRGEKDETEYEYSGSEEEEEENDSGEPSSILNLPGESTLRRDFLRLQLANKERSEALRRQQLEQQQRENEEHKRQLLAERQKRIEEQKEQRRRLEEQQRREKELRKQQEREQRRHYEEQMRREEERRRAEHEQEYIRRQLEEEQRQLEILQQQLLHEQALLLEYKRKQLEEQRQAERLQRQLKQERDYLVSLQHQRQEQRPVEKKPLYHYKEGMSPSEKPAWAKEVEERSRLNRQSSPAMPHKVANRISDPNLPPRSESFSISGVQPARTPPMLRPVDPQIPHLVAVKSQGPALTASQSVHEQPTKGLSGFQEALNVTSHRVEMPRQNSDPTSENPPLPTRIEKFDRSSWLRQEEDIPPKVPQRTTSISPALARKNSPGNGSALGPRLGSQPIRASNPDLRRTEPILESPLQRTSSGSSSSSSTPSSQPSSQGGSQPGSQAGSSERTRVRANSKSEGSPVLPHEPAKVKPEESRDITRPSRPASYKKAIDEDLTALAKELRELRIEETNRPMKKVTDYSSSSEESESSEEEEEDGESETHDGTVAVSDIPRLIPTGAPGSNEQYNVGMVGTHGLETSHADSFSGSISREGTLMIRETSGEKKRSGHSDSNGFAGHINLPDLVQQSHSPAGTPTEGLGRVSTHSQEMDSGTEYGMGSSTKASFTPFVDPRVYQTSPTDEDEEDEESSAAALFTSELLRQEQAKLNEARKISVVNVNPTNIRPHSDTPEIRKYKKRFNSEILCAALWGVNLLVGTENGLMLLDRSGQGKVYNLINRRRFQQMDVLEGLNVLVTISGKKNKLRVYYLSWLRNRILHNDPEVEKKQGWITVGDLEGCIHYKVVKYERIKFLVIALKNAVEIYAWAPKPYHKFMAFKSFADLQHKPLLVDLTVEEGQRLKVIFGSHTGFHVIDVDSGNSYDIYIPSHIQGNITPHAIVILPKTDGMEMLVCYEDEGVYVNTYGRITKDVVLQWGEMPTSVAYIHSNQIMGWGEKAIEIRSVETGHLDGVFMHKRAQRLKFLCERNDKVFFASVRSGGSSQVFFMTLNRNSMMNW
TCP1, sequence (P17987 whole entry): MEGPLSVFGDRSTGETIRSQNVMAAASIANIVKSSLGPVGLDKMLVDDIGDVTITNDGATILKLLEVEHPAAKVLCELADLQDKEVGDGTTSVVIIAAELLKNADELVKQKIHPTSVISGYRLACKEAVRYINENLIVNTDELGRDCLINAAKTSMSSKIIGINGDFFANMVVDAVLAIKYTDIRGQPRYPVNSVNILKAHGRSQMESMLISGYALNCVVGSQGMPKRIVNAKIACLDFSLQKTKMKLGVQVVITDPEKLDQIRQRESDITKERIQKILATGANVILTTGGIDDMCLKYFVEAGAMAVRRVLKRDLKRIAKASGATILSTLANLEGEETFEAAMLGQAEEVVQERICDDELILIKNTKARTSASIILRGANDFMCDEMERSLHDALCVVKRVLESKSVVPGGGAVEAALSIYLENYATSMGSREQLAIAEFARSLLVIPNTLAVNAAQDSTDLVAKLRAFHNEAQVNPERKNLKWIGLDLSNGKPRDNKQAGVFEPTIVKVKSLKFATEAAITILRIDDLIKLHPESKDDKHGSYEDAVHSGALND

- Av. SC comp. (MAP4K1; + free ponatinib): 2.5
- Total SC comp. (MAP4K1; + free ponatinib): 10
- Av. SC (MAP4K1; no competitor): 46.75
- Total SC (MAP4K1; no competitor): 187
- Av. SC comp. (GAK; + free ponatinib): 10.25
- Total SC comp. (GAK; + free ponatinib): 41
- Av. SC (GAK; no competitor): 22.75
- Total SC (GAK; no competitor): 91
- Av. SC comp. (TNIK; + free ponatinib): 0
- Total SC comp. (TNIK; + free ponatinib): 0
- Av. SC (TNIK; no competitor): 26.75
- Total SC (TNIK; no competitor): 107
- Av. SC comp. (JAK2; + free ponatinib): 0
- Total SC comp. (JAK2; + free ponatinib): 0
- Av. SC (JAK2; no competitor): 2.25
- Total SC (JAK2; no competitor): 9
- Av. SC comp. (TCP1; + free ponatinib): 1.5
- Total SC comp. (TCP1; + free ponatinib): 6
- Av. SC (TCP1; no competitor): 5
- Total SC (TCP1; no competitor): 20
Compound: Cc1ccc(C(=O)Nc2ccc(CN3CCN(CCCN)CC3)c(C(F)(F)F)c2)cc1C#Cc1cnc2cccnn12 [c-ponatinib]
